Patent US8067032B2, “Method for preparing submicron particles of antineoplastic agents” (Baxter International Inc., priority 2000, dated 2011)
Values after ≈ are worked out from the molar mass of the structure shown.

Experiment: Solubility of itraconazole in NMP
Type: physicochemical
Settings: organic solvent or mixture, room temperature (approximately 22° C.)
Description: Sample preparation. […] A 0.20 g/mL drug concentrate solution was prepared by dissolving 2.0 g of itraconazole and 0.2 g Poloxamer 188 in 10 mL NMP with heat and stirring. This solution was then allowed to cool to room temperature to yield a supersaturated solution. A microprecipitation experiment was immediately performed in which 1.5 mL of the drug concentrate was added to 30 mL of an aqueous solution containing 0.1% deoxycholate, 2.2% glycerol. The aqueous solution was maintained at ˜2° C. and a stir rate of 350 rpm during the addition step. The resulting presuspension was homogenized at ˜13,000 psi for approx. 10 minutes at 50° C. The suspension was then centrifuged, the supernatant decanted, and the solid crystals dried in a vacuum oven at 30° C. for 135 hours.

solubility: 160 mg/mL (≈ 227 mM)
SMILES: CCC(C)n1ncn(-c2ccc(N3CCN(c4ccc(OCC5COC(Cn6cncn6)(c6ccc(Cl)cc6Cl)O5)cc4)CC3)cc2)c1=O (stereo not shown) [itraconazole]
